Experimental data: US6656907B1, “Method of treating gastric ulcer by administration of epidermal growth factor” (University Technologies International Inc., priority 1995, dated 2003)

Test system: intestinal brush border membrane nutrient absorption
Assay: Nutrient uptake into brush border membrane vesicles after jejunal loop treatment
Type: in vivo, New Zealand White rabbits
Experimental: Subsequent experiments examined the effects of EGF and an inhibitor of the EGF receptor (tyrphostin 51) on intestinal brush border membrane nutrient absorption. Tyrphostin 51is a specific inhibitor of tyrosine kinase, which is a critical element of the EGF intracellular signalling cascade. Studies were performed in New Zealand White rabbits (700-1000 g; approximately 8 weeks of age). Two 10 cm blind jejunal loops separated by a 1 cm segment were tied off starting 5 cm distal to the ligament of Treitz. In separate experiments either EGF (60 ng/ml), EGF+tyrphostin (10 μM), or tyrphostin (10 μM) alone in 1.5 ml of saline vehicle was administered to one of the loops. The other loop received vehicle alone and served as a paired control. After one hour, the loops were removed and the mucosa scraped for preparation of brush border membrane vesicles. Nutrient (D-glucose and L-proline) uptake into brush border membrane vesicles was determined by established techniques. Luminal EGF stimulated a significant increase (p<0.001) in brush border membrane glucose (EGF 16.1±1.0 vs CONTROL 11.5±0.9 nmol/min/mg protein; n=5) and proline (EGF 3.8±0.5 vs CONTROL 2.6±0.3 nmol/min/mg protein; n=5) transport compared to controls. […] Subsequently, a further series of experiments examined the effect of tyrphostin alone on brush border glucose transport. […]

For `N#CC(C#N)=C(N)/C(C#N)=C/c1cc(O)c(O)c(O)c1` [TYR, tyrphostin 51, reference compound], the “effect on EGF-induced increase in glucose uptake” value (concurrent tyrphostin 10 μM with EGF 60 ng/ml) was “completely blocked” and the “brush border membrane glucose uptake” value (tyrphostin 10 μM alone, one hour, n=4, control 10.7±1.0) was 8.0±0.8 nmol/min/mg protein.
